We go through six molecules from ChEMBL document CHEMBL1201862, “PubChem BioAssay data set” (2004).

The target in one experiment is Beta-galactosidase (Escherichia coli, UniProt Q8VNN2). Nature of the experiment: PubChem AID 485352. Type of experiment: functional.
The target of experiment [1] is Type-1 angiotensin II receptor (Homo sapiens, UniProt P30556). Nature of the experiment: antagonism of angiotensin II type 1 receptor – cell-based, uHTS hits, selectivity assay for APJ receptor antagonist project, dose response (AID 463214).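 Further: antagonist potency against angiotensin II stimulated AT1 response.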 The format is functional.
Type-1 angiotensin II receptor, sequence (P30556 whole entry): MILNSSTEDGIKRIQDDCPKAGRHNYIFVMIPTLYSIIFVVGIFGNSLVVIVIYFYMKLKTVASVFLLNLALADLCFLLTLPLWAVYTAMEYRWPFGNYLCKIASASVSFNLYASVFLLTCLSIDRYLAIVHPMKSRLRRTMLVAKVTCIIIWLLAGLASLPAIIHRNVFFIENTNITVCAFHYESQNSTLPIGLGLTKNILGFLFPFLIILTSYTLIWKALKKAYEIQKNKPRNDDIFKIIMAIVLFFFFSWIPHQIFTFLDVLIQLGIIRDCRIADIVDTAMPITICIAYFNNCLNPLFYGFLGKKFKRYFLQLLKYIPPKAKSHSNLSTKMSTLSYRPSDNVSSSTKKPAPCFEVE
A further experiment deals with A-375. Put plainly: proliferation inhibition in MITF-low A375 cells – cell-based, cherry-pick samples, set 2, counter-screen for MITF modulator project, dose response (AID 540335). The note with it: Homo sapiens. The format is functional.
Experiment [2] deals with T1, Microphthalmia-associated transcription factor (Homo sapiens, UniProt O75030).
T1 sequence (O75030 whole entry): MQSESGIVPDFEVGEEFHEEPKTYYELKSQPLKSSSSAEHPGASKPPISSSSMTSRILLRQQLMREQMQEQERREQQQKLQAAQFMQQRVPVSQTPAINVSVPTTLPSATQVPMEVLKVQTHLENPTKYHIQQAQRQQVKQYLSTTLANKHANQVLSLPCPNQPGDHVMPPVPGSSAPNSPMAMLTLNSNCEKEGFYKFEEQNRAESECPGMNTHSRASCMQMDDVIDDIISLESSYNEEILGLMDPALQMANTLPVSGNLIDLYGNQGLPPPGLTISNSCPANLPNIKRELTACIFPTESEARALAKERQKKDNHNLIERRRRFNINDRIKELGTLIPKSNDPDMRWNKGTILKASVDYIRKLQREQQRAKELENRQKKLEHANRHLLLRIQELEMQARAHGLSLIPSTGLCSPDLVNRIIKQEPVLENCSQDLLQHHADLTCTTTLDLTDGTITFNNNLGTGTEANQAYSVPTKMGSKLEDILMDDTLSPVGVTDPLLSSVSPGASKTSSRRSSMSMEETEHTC
Nature of the experiment: reducers of TRPM1 reporter luminescence, concentration series – cell-based, SK-MEL-5, cherry-picked, set 3, MITF inhibitor project, dose response (AID 493073).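 Further: SK-MEL-5 melanoma cells with luciferase driven by the MITF target TRPM1 promoter.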 The format is functional.

The target of experiment [3] is FAD-linked sulfhydryl oxidase ALR (Homo sapiens, UniProt P55789). Put plainly: ALR-catalysed DTT oxidation blockers – biochemical, H2O2 detection, luminescence, cherry-pick, dose response (AID 493248).
FAD-linked sulfhydryl oxidase ALR, sequence (P55789 whole entry): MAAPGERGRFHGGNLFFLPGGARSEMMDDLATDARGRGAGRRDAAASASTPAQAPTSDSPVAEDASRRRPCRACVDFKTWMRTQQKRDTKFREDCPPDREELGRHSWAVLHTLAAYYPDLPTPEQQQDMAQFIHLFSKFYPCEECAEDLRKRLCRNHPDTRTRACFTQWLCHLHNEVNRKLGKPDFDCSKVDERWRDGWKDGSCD
Experiment [4] deals with T2, Histone-lysine N-methyltransferase NSD2 (Homo sapiens, UniProt O96028).
T2 sequence (O96028 whole entry): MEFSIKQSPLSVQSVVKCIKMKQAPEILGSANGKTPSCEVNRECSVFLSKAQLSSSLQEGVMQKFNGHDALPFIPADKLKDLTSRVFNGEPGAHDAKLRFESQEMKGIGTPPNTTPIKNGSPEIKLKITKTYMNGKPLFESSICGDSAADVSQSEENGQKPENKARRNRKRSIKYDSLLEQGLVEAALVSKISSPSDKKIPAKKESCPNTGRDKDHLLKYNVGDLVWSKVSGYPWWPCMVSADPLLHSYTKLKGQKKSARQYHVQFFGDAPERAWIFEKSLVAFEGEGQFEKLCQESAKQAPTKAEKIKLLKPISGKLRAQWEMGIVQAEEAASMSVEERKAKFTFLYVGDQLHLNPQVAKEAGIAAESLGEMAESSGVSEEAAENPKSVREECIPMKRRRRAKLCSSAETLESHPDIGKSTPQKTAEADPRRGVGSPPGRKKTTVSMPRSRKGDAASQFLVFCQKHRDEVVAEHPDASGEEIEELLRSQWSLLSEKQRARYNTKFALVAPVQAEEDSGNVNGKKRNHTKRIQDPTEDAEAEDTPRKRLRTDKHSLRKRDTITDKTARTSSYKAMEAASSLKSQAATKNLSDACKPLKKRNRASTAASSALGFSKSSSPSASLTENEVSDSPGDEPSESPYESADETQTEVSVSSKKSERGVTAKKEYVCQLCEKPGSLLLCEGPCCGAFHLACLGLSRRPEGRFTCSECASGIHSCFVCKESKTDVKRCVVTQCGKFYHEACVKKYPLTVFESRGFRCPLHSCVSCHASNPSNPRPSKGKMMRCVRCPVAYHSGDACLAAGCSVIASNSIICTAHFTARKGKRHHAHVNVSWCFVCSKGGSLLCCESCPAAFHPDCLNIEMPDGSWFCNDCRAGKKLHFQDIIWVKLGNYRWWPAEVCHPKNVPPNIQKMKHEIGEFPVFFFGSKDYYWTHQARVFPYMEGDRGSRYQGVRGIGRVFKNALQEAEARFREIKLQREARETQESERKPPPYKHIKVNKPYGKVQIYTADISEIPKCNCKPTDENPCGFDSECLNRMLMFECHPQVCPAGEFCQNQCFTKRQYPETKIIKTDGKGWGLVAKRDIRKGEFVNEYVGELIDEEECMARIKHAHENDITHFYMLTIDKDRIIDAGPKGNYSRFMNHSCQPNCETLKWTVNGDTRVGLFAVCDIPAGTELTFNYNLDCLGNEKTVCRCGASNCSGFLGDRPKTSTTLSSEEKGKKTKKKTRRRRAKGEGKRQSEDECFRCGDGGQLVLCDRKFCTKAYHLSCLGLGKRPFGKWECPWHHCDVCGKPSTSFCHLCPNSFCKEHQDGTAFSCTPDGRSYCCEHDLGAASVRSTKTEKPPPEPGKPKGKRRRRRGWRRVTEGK
The format is biochemical.

Experiment [5] has as its target T3, Sentrin-specific protease 7 (Homo sapiens, UniProt Q9BQF6).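 Further: Luminescence-based dose-response confirmation of ultra-high-throughput screening hits, measuring inhibition of SENP7.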
T3 sequence (Q9BQF6 whole entry): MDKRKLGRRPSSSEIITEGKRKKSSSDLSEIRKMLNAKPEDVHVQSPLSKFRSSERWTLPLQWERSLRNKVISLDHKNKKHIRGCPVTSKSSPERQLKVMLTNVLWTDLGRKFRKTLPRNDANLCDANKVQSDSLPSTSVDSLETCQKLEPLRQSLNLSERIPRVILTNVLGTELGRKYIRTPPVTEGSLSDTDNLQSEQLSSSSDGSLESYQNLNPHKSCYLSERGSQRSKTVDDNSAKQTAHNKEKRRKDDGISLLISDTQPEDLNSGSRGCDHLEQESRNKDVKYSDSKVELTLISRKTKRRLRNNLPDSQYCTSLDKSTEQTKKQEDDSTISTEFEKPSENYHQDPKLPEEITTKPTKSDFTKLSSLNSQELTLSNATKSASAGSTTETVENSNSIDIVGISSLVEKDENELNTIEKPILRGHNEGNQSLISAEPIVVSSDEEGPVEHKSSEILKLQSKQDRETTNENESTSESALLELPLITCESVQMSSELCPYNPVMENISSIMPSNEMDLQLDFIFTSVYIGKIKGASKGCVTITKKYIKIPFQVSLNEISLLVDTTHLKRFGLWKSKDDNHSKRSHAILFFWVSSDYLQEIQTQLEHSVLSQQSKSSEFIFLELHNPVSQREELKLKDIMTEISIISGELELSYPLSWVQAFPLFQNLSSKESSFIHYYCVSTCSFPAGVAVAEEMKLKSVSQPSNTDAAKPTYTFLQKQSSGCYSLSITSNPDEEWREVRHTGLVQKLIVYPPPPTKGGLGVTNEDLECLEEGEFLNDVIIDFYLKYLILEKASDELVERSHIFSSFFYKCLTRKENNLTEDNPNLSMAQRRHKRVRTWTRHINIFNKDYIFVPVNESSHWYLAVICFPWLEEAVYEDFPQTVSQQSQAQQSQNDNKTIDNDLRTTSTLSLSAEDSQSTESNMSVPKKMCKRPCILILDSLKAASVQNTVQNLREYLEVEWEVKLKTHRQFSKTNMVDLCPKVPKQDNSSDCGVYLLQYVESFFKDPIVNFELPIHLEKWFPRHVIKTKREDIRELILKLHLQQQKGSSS
The format is functional.

The target of experiment [6] is T4, Sentrin-specific protease 8 (Homo sapiens, UniProt Q96LD8).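 Further: luminescence read-out of SENP8 inhibition, dose-response confirmation following an ultra-high-throughput screen.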
T4 sequence (Q96LD8 whole entry): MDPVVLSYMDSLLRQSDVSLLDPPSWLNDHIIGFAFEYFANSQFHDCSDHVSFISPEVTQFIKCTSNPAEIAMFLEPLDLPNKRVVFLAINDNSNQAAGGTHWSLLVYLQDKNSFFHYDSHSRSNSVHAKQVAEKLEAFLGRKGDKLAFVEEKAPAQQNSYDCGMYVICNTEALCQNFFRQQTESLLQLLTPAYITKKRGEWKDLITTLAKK
The format is functional.

For experiment [7], the target named is T5, Sentrin-specific protease 6 (Homo sapiens, UniProt Q9GZR1).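 Further: Luminescence-based dose-response confirmatory assay of SENP6 inhibition, following up an ultra-high-throughput screen.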
T5 sequence (Q9GZR1 whole entry): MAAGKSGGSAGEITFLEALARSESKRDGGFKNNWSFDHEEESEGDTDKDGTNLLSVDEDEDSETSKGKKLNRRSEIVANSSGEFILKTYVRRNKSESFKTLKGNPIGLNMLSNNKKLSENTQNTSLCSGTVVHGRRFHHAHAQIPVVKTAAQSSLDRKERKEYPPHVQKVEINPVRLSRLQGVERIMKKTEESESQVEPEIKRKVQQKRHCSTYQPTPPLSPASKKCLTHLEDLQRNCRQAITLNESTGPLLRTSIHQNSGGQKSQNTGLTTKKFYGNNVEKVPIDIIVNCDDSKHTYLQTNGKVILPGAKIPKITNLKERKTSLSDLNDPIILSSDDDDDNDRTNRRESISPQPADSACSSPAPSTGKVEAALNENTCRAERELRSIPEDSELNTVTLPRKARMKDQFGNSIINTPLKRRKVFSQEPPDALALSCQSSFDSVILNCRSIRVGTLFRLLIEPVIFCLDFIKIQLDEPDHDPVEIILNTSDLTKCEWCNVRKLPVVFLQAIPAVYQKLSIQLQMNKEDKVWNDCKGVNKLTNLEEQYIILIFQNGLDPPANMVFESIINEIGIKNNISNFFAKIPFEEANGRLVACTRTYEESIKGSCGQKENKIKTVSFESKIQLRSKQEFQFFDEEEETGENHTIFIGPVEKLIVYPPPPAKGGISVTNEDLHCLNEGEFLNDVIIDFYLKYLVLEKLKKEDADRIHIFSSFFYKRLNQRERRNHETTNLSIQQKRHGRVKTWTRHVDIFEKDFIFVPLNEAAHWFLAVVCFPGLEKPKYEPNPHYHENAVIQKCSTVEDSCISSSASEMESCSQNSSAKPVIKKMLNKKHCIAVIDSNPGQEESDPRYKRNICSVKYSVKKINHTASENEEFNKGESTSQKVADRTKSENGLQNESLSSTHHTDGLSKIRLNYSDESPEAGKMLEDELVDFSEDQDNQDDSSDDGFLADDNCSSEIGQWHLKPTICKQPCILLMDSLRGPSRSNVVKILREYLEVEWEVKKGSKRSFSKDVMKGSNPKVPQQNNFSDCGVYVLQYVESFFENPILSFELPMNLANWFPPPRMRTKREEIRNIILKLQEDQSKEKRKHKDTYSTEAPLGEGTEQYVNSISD
The format is functional.

The next experiment concerns the target T6, Caspase-3 (Homo sapiens, UniProt P42574).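 Further: Dose-response selectivity test against caspase-3 for candidate inhibitors of sentrin-specific proteases (SENPs).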
T6 sequence (P42574 whole entry): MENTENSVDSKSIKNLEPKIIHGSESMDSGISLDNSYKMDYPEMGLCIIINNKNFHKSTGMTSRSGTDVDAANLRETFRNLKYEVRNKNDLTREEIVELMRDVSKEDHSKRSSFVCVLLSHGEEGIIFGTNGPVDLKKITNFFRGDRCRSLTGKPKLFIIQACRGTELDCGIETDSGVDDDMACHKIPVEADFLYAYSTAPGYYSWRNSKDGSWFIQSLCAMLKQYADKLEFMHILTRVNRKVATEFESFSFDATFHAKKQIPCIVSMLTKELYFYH
Type of experiment: functional.

The target in experiment [8] is T7, Heat shock factor protein 1 (Mus musculus, UniProt P38532).
T7 sequence (P38532 whole entry): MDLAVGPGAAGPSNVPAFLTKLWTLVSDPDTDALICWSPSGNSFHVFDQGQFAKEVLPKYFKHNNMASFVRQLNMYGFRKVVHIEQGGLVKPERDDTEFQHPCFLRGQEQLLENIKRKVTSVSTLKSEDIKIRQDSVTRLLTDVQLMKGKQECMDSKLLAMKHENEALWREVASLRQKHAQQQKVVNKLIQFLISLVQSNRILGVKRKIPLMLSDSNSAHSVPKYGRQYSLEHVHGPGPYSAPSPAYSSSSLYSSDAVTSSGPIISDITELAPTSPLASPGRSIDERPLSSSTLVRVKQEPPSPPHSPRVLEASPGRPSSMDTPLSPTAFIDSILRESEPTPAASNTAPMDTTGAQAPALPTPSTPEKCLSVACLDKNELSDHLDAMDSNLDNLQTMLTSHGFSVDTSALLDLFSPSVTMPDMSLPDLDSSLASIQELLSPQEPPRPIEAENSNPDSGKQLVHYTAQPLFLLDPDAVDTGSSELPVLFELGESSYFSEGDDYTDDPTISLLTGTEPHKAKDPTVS
Put plainly: decrease of HSF1-responsive luciferase luminescence – cell-based, NIH3T3, dose retest, confirmation (AID 2382).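 Further: NIH3T3 fibroblasts with HSF1-driven luciferase reporter stressed by proteasome inhibitor MG132; luminescence from HSF1-driven luciferase expression after 8 hours of MG132 stress.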 Type of experiment: functional.

In another experiment the test system is CHO. Nature of the experiment: CHO cell viability loss, potency – luminescence, cytotoxicity control for TLR9-MyD88 binding inhibitor project, dose response (AID 588339).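 Further: CHO cells stably coexpressing TLR9 and MyD88 fusions from primary screen; compound exposure lasted 48 hours before viability readout.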 Type of experiment: functional, cell-based, hamster. The note with it: Cricetulus griseus.
Another experiment has as its system INS1. Put plainly: INS-1E mitochondrial potential rescue under cytokines – cell-based, JC-1 fluorescence ratio, dry powder, dose response (AID 488931). The format is functional. To be noted: Rattus norvegicus.

Each structure is given as a SMILES string. Active and inactive are the calls of the source.

Beta-galactosidase, sequence (Q8VNN2 whole entry): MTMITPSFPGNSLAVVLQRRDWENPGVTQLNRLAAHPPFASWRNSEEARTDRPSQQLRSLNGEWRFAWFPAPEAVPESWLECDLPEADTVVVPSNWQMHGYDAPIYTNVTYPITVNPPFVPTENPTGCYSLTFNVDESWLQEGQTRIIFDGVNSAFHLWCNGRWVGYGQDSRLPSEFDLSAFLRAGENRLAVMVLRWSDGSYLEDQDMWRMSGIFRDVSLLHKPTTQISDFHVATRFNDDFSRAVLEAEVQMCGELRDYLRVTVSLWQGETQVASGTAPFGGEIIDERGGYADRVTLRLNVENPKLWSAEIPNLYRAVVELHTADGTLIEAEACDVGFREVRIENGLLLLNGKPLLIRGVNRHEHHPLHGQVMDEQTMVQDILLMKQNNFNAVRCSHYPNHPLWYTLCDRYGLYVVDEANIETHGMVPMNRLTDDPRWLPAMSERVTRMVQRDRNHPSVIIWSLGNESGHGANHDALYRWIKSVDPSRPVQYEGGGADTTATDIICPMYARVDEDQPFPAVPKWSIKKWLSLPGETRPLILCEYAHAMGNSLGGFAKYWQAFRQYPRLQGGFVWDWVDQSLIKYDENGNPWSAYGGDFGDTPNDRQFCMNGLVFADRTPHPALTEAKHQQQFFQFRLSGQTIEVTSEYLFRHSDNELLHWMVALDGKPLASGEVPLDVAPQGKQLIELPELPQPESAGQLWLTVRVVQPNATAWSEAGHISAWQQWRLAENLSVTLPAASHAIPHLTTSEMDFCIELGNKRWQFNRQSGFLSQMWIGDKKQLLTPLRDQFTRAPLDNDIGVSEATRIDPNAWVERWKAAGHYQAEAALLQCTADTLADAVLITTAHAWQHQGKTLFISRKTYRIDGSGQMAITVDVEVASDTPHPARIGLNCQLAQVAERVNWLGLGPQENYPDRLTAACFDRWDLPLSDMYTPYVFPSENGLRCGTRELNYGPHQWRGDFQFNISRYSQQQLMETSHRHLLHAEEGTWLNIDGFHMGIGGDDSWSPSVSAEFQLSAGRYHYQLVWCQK

Turning to `O=S(=O)(N/N=C\c1ccc(-c2ccccc2Cl)o1)c1ccccc1`, the EC50 at Beta-galactosidase is > 40 µM (inactive). The IC50 in experiment [1] was > 40 µM (not active).
Consider `Cc1cc(C)cc(N2C(=O)NC(=O)/C(=C\C=C\c3ccco3)C2=O)c1`, for which the AC50 was 26.7 µM (active) in the experiment with A-375, 4.88 µM (active) in experiment [2], 0.501 µM (active) in experiment [3] and 18.1 µM (active) in [4].
As to `Cc1nnsc1C(=O)NNc1ccc(C(C)(C)C)cc1`, the EC50 at Beta-galactosidase is > 40 µM (inactive). The IC50 in experiment [1] was 2.56 µM (active).
As to `Cc1nn2cc(-c3ncc(C(F)(F)F)cc3Cl)cnc2c1Br`, the IC50 in [5] is 19.4 µM (active); in experiment [6], 36.9 µM (active); in [7], 44.8 µM (active); on Caspase-3, 21.5 µM (active).
For the molecule `CC(C)OC(=O)c1sc2nc(-c3ccccc3)ccc2c1N`, in experiment [8], the EC50 is < 0.16 µM (active). The IC50 in the experiment with CHO was > 49.8 µM (inactive).
In the case of `COc1ccc(S(=O)(=O)N(C)C[C@@H]2Oc3c(NC(=O)C4CCCCC4)cccc3C(=O)N([C@@H](C)CO)C[C@H]2C)cc1`, in the experiment with INS1, the AC50 is 137 µM (active).
